Reference: US20100215782A1, “NOVEL MITOCHONDRIAL UNCOUPLING METHODS AND COMPOSITIONS FOR ENHANCING ADIPOCYTE THERMOGENESIS” (METAPROTEOMICS, LLC, priority 2008, published 2010)

Legend:
3T3-L1 adipocytes = assay: JC-1 mitochondrial membrane potential (uncoupling) assay in 3T3-L1 adipocytes; format: cell-based, murine; conditions: for Monomer/Aggregate Ratio: 3T3-L1 adipocytes, test material 25 μg/mL, JC-1 fluorescence relative to JC-1 negative control, values >1.06 significant (p<0.05)
Text: Objective—The objective of this experiment was to observe the dose-response effect of the mitochondrial uncoupler DNP on mitochondrial membrane potential in 3T3-L1 adipocytes using the lipophilic cationic dye, 5,5′,6,6′-tetrachloro-1,1′,3,3′-tetraethylbenzimidazolylcarbocyanine iodide (JC-1).
The Model—The 3T3-L1 murine fibroblast model is commonly used to study the potential effects of compounds on white adipose tissue in vitro. This cell line allows investigation of stimuli and mechanisms that regulate inflammatory mediators of cytokine secretion of the adipocyte. As preadipocytes, 3T3-L1 cells have a fibroblastic appearance. They replicate in culture until they form a confluent monolayer, after which cell-cell contact triggers Go/G1 growth arrest. Terminal differentiation of 3T3-L1 cells to adipocytes depends on proliferation of both pre- and post-confluent preadipocytes. Subsequent stimulation with 3-isobutyl-1-methylxanthane, dexamethasone, and high does of insulin (MDI) for two days prompts these cells to undergo post-confluent mitotic clonal expansion, exit the cell cycle, and begin to express adipocyte-specific genes. Approximately five days after induction of differentiation, more than 90% of the cells display the characteristic lipid-filled adipocyte phenotype. At this stage of differentiation, response to mitochondrial uncouplers such as DNP may be assessed.
Cell culture and Treatment—The murine fibroblast cell line 3T3-L1 was purchased from the American Type Culture Collection (Manassas, Va.) and sub-cultured according to instructions from the supplier. Prior to experiments, cells were cultured in DMEM containing 10% FBS-HI added 50 units penicillin/ml and 50 μg streptomycin/ml, and maintained in log phase prior to experimental setup. Cells were grown in a 5% CO2 humidified incubator at 37° C. Components of the pre-confluent medium included: (1) 10% FBS/DMEM (Fetal Bovine Serum/Dulbecco's Modified Eagle's Medium) containing 4.5 g glucose/L; (2) 50 U/ml penicillin; and (3) 50 μg/ml streptomycin. Growth medium was made by adding 50 ml of heat inactivated FBS and 5 ml of penicillin/streptomycin to 500 ml DMEM. This medium was stored at 4° C. Before use, the medium was warmed to 37° C. in a water bath.
[…] cells were seeded at an initial density of 6×10^4 cells/cm^2 in 24-well plates. For two days, the cells were allowed grow to reach confluence. Following confluence, the cells were forced to differentiate into adipocytes by the addition of differentiation medium; this medium consisted of (1) 10% FBS/DMEM (high glucose); (2) 0.5 mM methylisobutylxanthine; (3) 0.5 μM dexamethasone and (4) 10 μg/ml insulin (MDI medium). After three days, the medium was changed to post-differentiation medium consisting of 10 μg/ml insulin in 10% FBS/DMEM.
Treatment with Test Material 2,4-Dinitrophenol—On Day 6 post differentiation, DNP was dissolved in dimethyl sulfoxide (DMSO) and added to the culture medium to achieve concentrations of 500, 100, 50, 10 or 5 μM per column for 60 min at 37° C. JC-1 was then added to the test and negative control columns in 10 μL DMSO to achieve a final concentration of 5 μM and allowed to incubate at 37° C. for an additional 30 min. A DMSO and solvent plus JC-1 control were run concurrently with each experiment. A Packard Fluorocount spectrofluorometer (Model#BF10000, Meridan, Conn.) set at 560 nm excitation and 590 nm emission was used for quantification of aggregate fluorescence and at 485 nm excitation/530 emission for monomer fluorescence.
Measuring mitochondrial membrane potential changes (ΔΨm)—JC-1 (Sigma, St. Louis, Mo.) has advantages over other cationic dyes in that it can selectively enter into mitochondria and reversibly change color from green to red as the membrane potential increases. In healthy cells with high mitochondrial membrane potential (ΔΨm), JC-1 spontaneously forms complexes known as J-aggregates with intense red fluorescence. […]

[1] = cited from earlier work

CCCCC[C@H](O)CC(=O)CCc1ccc(O)c(OC)c1 [6-Gingerol]
Monomer/Aggregate Ratio (3T3-L1 adipocytes): 1.14

COc1cc(/C=C/C(=O)CC(=O)/C=C/c2ccc(O)c(OC)c2)ccc1O [Curcumin]
Monomer/Aggregate Ratio (3T3-L1 adipocytes): 3.89

O=[N+]([O-])c1ccc(O)c([N+](=O)[O-])c1 [DNP, 2,4-dinitrophenol]
Potency of positive control (decrease of ΔΨm) (3T3-L1 adipocytes; 18.4 μg DNP/mL): 45% | Mean M/A (monomer/aggregate ratio) of positive control (3T3-L1 adipocytes; 100 μM 2,4-dinitrophenol (18.4 μg DNP/mL), 95% CI=1.34-1.39, n=200, over the experimental period): 1.36 | Concentration at which monomer/aggregate ratio is significantly increased (p<0.05) relative to JC-1 negative controls (3T3-L1 adipocytes; 3T3-L1 adipocytes, 500, 100, 50, 10 or 5 μM for 60 min, FIG. 2): ≥ 50 µM | Change of ΔΨm in 3T3-L1 adipocytes (in words) (3T3-L1 adipocytes; relative to negative JC-1 controls): dose-related decreased in ΔΨm | Average fall in diastolic blood pressure ([1]; 30 hypertensive patients): 12.6% | Average fall in systolic blood pressure ([1]; 30 hypertensive patients): 9.4% | Dose generally well-tolerated ([1]; approximately 5 mg/kg body weight, feeling of warmth and increased perspiration reported): up to 0.5 g | Gradual increase in metabolic rate (average) ([1]; daily dosing of 3-5 mg/kg, maintained for a minimum of ten weeks): 40% | Dose producing profuse sweating, increased heart rate, respiration rate and excessive body temperature rises ([1]; human, in vivo): Above 10 mg/kg | Average increase in metabolic rate for each dosage increment of 0.1 g ([1]; obese patients): 11% | Increase in resting metabolic rate ([1]; single doses of 3-5 mg/kg, within the first hour, maintained for 24 hours): 20-30% | Effect on blood pressure or heart rate ([1]; therapeutic doses, normal patients): no effect on blood pressure or heart rate

Oc1ccc(C=Cc2cc(O)cc(O)c2)cc1 [Resveratrol]
Monomer/Aggregate Ratio (3T3-L1 adipocytes): 1.48

C[C@@H]1O[C@@H](OC[C@H]2O[C@@H](Oc3c(-c4ccc(O)c(O)c4)oc4cc(O)cc(O)c4c3=O)[C@H](O)[C@@H](O)[C@@H]2O)[C@H](O)[C@H](O)[C@H]1O [Rutin Powder, Rutin]
Monomer/Aggregate Ratio (3T3-L1 adipocytes): 1.37

CNCC(O)c1ccc(O)cc1 (centres unmarked) [Synephrine]
Monomer/Aggregate Ratio (3T3-L1 adipocytes): 1.06
